Molecules are shown by their SMILES.

For 4 compounds, IC50 and melting point results are on record in patent publication US7947706B2, “Substituted pyrrolopyridines, compositions containing them, manufacturing process therefor and use thereof” (Sanofi-Aventis Deutschland GmbH, priority 2005, dated 2011).

Series [1] deals with T1, Aurora B (Homo sapiens, UniProt Q96GD4).
T1 construct: His (N); made in house
Put plainly: Aurora1 (Aurora-B/INCENP-C3 complex) enzymatic test, NuMA substrate phosphorylation, radioactivity detection. It counts as biochemical. The conditions noted are these: 10 nM Aurora1 (Aurora-B/INCENP-C3), 500 nM NuMA, 1 μM ATP, 30 minutes, 37° C.; read-out: IC 50 Aurora B. The method, then:
(§1) The inhibitory effect of compounds with respect to the kinases Aurora1 and Aurora2 is determined by means of an enzymatic test using radioactivity detection.
(§2) The kinase activity of Aurora1 and Aurora2 is evaluated via the phosphorylation of the substrate Numa-histidine in the presence of radiolabelled ATP ([^33P]ATP) using 96-well Flashplate plates in which the nickel chelate is bound to the surface of the microplate. The amount of ^33P phosphate incorporated into the NuMA substrate is proportional to the activity of the enzyme Aurora1 or Aurora2.
Aurora1: Aurora-B/INCENP-C3 recombinant complex, purified to about 50%, the N-terminal end of Aurora-B of which has been labelled with histidine.
(§3) NuMA (nuclear protein that combines with the mitotic apparatus): 424-amino acid fragment, expressed in E. coli, the N-terminal end of which has been labelled with histidine, and used as substrate for the two Aurora enzymes.
(§4) The microplates used are 96-well Flash-Plate plates, nickel chelate (Perkin-Elmer, model SMP107).
(§5) The products to be evaluated are incubated in a reaction volume of 100 μL per well, in the presence of 10 nM of Aurora1 or Aurora2, 500 nM of NuMA substrate in a buffer composed of 50 mM Tris/HCl (pH 7.5), 50 mM NaCl, 5 mM MgCl2 (Aurora-B) or 10 mM MgCl2 (Aurora-A) and 1 mM DTT, at 37° C.
(§6) 80 μL of enzyme/substrate incubation buffer are distributed in each well, followed by 10 μL of product to be evaluated, at variable concentrations. The reaction is initiated by adding 1 μM final of ATP containing 0.2 μCi of [^33P]ATP (10 μL). After incubating for 30 minutes, the reaction is quenched by simple removal of the reaction buffer and each well is washed twice with 300 μl of Tris/HCl buffer. The radioactivity is then measured in each well using a Packard, Top-Count model scintillation machine.
(§7) The control enzymatic activity of Aurora is expressed by the number of counts per minute obtained over 30 minutes after subtracting the background noise (reaction mixture containing no enzyme). The evaluation of the various test products is expressed as a percentage of inhibition of the Aurora activity relative to the control.

Series [2] has as its target T2, Aurora A (Homo sapiens, UniProt O14965).
T2 construct: Aurora2: whole recombinant protein comprising an N-terminal histidine tail; His (N); made in house; host or cells: E. coli
T2 sequence (O14965 1-403): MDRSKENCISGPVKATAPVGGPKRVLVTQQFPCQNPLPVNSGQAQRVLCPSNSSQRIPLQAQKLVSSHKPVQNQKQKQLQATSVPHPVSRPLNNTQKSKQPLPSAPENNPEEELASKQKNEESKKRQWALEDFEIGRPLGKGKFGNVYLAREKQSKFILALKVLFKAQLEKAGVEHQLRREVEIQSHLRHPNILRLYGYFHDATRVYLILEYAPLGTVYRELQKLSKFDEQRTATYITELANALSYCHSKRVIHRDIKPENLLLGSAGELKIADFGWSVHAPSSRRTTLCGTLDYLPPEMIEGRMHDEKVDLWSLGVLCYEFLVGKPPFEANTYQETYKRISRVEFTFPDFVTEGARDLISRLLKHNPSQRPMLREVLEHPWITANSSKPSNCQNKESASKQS
Nature of the series: Aurora2 (Aurora-A) enzymatic test, NuMA substrate phosphorylation, radioactivity detection. It counts as biochemical. The note with it: 10 nM Aurora2, 500 nM NuMA, 1 μM ATP, 30 minutes, 37° C.; read-out: IC 50 Aurora A. The method, then: as §1, §2
Aurora2: whole recombinant protein comprising an N-terminal histidine tail, was expressed in E. coli and purified to more than 82%.
as §3, §4, §5, §6, §7

In series [3] the target is T3, FAK (Homo sapiens, UniProt Q05397).
T3 construct: The whole cDNA of human FAK; made in house; host or cells: baculovirus expression (pFastBac HTc)
T3 sequence (Q05397 whole entry): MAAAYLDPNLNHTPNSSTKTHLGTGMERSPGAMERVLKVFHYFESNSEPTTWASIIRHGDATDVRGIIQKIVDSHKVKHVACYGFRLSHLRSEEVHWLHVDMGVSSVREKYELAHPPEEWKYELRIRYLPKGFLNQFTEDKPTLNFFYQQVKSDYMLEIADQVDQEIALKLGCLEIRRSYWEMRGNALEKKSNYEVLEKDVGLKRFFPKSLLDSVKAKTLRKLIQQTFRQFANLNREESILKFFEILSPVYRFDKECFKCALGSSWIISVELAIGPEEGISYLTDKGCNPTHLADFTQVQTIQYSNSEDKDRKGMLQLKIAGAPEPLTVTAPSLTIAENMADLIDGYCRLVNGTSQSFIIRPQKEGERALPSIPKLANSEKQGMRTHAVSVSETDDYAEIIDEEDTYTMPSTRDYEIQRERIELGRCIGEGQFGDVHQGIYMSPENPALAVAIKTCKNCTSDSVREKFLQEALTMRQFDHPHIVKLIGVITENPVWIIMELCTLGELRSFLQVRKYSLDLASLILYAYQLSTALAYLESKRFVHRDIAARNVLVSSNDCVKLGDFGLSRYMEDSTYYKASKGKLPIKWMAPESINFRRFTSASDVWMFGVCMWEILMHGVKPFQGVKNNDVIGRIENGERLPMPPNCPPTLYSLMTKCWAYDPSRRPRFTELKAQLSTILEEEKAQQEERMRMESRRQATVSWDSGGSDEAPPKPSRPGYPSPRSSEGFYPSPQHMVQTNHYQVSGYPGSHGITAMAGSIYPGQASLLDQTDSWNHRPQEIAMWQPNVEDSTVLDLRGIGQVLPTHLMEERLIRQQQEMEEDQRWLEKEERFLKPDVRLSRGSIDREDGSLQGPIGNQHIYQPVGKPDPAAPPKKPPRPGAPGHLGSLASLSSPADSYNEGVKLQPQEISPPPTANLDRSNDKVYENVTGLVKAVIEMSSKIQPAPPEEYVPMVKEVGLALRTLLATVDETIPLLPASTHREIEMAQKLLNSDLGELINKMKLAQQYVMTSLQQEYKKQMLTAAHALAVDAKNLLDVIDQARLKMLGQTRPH
Put plainly: FAK autophosphorylation inhibition, time-resolved fluorescence test (HTRF). It counts as biochemical. The conditions noted are these: autophosphorylation of His-tagged human FAK, 15 μM ATP, 1 hour at 37° C. As to the method: The inhibitory activity of the compounds on FAK is determined by measuring the inhibition of autophosphorylation of the enzyme using a time-resolved fluorescence test (HTRF).
The whole cDNA of human FAK, the N-terminal end of which has been labelled with histidine, was cloned in a pFastBac HTc baculovirus expression vector. The protein was expressed and purified to about 70% homogeneity.
The kinase activity is determined by incubating the enzyme (6.6 μg/ml) with different concentrations of test compound in a 50 mM Hepes pH=7.2, 10 mM MgCl2, 100 μm Na3VO4, 15 μM ATP buffer for 1 hour at 37° C. The enzymatic reaction is stopped by adding Hepes pH=7.0 buffer containing 0.4 mM KF, 133 mM EDTA, 0.1% BSA and the labelling is performed, for 1 to 2 hours at room temperature, by adding to this buffer an anti-Histidine antibody labelled with XL665 and a tyrosine phosphospecific monoclonal antibody conjugated to europium cryptate (Eu—K). The characteristics of the two fluorophores are available in G. Mathis et al., Anticancer Research, 1997, 17, pages 3011-3014. The energy transfer from the excited europium cryptate to the acceptor XL665 is proportional to the degree of autophosphorylation of FAK. The long-lasting signal specific for XL-665 is measured in a Packard Discovery plate counter. All the tests are performed in duplicate and the average of the two tests is calculated. The inhibition of the autophosphorylation activity of FAK with compounds of the invention is expressed as a percentage of inhibition relative to a control whose activity is measured in the absence of test compound. To calculate the percentage inhibition, the ratio [signal at 665 nm/signal at 620 nm] is considered.
In general terms: TR-FRET usually uses a lanthanide donor and a delayed reading to cut background.

T1 sequence (Q96GD4 whole entry): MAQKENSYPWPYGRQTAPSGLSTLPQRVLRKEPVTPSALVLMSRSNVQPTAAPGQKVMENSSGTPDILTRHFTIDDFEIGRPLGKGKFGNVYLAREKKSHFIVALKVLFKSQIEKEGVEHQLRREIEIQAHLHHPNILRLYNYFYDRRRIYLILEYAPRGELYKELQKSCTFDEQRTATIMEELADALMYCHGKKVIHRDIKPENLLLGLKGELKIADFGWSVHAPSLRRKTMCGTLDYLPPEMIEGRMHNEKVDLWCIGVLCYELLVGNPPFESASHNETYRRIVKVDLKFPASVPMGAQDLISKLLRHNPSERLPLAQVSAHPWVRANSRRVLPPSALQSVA
T1 sequence (Q9NQS7 826-900 partner limits assumed): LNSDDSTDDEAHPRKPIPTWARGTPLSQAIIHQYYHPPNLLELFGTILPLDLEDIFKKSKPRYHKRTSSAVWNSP

The term melting point denotes the temperature of the solid-liquid transition. As for `NC(=O)c1[nH]c2cnccc2c1-c1ccc(NC(=O)Nc2cc(C(F)(F)F)ccc2F)cc1` [Example 1, 3-{4-[3-(2-Fluoro-5-trifluoromethylphenyl)ureido]phenyl}-1H-pyrrolo[2,3-c]pyridine-2-carboxamide], the melting point was 286 °C. Besides, in series [1], the IC50 turned out to be 138 nM. The IC50 in series [2] turned out to be 172 nM. This compound yielded an IC50 in series [3] of 164 nM.
In the same order, the values of `COc1ccc(C)cc1NC(=O)Nc1ccc(-c2c(C(N)=O)[nH]c3cnccc23)cc1` [Example 2, 3-{4-[3-(2-Methoxy-5-methylphenyl)ureido]phenyl}-1H-pyrrolo[2,3-c]pyridine-2-carboxamide] are 227 °C, 196 nM, 222 nM and 299 nM.
In the same order, the values of `Cc1ccc(F)c(NC(=O)Nc2ccc(-c3c(C(N)=O)[nH]c4cnccc34)cc2)c1.O=C(O)C(F)(F)F` [Example 5, 3-{4-[3-(2-Fluoro-5-methylphenyl)ureido]phenyl}-1H-pyrrolo[2,3-c]pyridine-2-carboxamide trifluoroacetate] are 222 °C, 67 nM, 131 nM and 249 nM.
Compound `NC(=O)c1[nH]c2ncccc2c1-c1ccc(NC(=O)Nc2cc(C(F)(F)F)ccc2F)cc1` [Example 7, 3-{4-[3-(2-Fluoro-5-trifluoromethylphenyl)ureido]phenyl}-1H-pyrrolo[2,3-b]pyridine-2-carboxamide] gave a melting point of 232 °C. Besides, in series [1], the IC50 is 133 nM. Further, the IC50 in series [2] came to 553 nM. For the same compound, the IC50 in series [3] turned out to be 184 nM.
